Source: US12692269B2, “Therapeutic compounds” (Genentech, Inc., priority 2019, dated 2026)

What was measured:
Format in all cases: binding
TEAD1 YAP50-100 = TEAD1 YAP50-100 (Homo sapiens, UniProt P28347); test: TEAD1-YAP HTRF (TR-FRET) protein-protein interaction assay; settings: TEAD1, YAP peptide 50-100, HTRF; for EC50: read-out: TEAD1 YAP50-100 HTRF combined: EC50
In short: (§1)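 His-tagged TEAD YAP-binding domain (aa 217-447) pre-bound to Eu anti-His antibody, then incubated 30 min with compound before adding biotinylated YAP (aa 50-100) or TAZ (aa 13-57) peptide with streptavidin-XL665. After 60 min at room temperature, TR-FRET 665/615 nm ratio read; IC50/EC50 from four-parameter fit.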

TEAD2 YAP50-100 = TEAD2 YAP50-100 (Homo sapiens, UniProt Q15562); test: TEAD2-YAP HTRF (TR-FRET) protein-protein interaction assay; settings: TEAD2, YAP peptide 50-100, HTRF; for EC50: read-out: TEAD2 YAP50-100 HTRF combined: EC50
Sequence of TEAD2 YAP50-100 (Q15562 217-447): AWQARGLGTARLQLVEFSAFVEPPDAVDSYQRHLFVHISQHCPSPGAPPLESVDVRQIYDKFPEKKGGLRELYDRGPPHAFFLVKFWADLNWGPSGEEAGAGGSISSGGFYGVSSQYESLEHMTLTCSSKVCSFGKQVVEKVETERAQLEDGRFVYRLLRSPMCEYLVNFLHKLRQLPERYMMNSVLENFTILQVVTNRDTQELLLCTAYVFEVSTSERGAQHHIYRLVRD
In short: as §1

TEAD3 YAP50-100 = TEAD3 YAP50-100 (Homo sapiens, UniProt Q99594); test: TEAD3-YAP HTRF (TR-FRET) protein-protein interaction assay; settings: TEAD3, YAP peptide 50-100, HTRF; for EC50: read-out: TEAD3 YAP50-100 HTRF combined: EC50
Sequence of TEAD3 YAP50-100 (Q99594 173-435 limits assumed): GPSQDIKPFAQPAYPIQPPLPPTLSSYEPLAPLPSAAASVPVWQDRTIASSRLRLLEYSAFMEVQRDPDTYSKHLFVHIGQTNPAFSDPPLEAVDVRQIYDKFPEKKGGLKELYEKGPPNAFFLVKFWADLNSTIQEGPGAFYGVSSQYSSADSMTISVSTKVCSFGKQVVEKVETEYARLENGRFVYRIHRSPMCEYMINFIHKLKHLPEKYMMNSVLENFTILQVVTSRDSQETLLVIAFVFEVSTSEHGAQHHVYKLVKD
In short: as §1

TEAD4 YAP50-100 = TEAD4 YAP50-100 (Homo sapiens, UniProt Q15561); test: TEAD4-YAP HTRF (TR-FRET) protein-protein interaction assay; settings: TEAD4, YAP peptide 50-100, HTRF; for EC50: read-out: TEAD4 YAP50-100 HTRF combined: EC50
Sequence of TEAD4 YAP50-100 (Q15561 217-434 limits assumed): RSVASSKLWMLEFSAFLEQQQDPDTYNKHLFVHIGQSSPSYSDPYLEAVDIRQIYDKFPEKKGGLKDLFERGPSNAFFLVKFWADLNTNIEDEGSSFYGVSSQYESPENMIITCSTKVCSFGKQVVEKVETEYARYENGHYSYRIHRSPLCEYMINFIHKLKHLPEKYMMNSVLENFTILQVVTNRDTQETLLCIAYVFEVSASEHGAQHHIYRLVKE
In short: as §1

[1] = biological target: TEAD1 TAZ (amino acids 13-57) (Homo sapiens, UniProt P28347); test: TEAD1-TAZ HTRF (TR-FRET) protein-protein interaction assay; settings: for TEAD1 TAZ HTRF combined: Max % Inhibition: TEAD1, TAZ peptide; for EC50: TEAD1-TAZ HTRF, TR-FRET 665 nm/615 nm, read-out: TEAD1 TAZ HTRF combined: EC50
Sequence of TEAD1 TAZ (amino acids 13-57) (P28347 167-426 limits assumed): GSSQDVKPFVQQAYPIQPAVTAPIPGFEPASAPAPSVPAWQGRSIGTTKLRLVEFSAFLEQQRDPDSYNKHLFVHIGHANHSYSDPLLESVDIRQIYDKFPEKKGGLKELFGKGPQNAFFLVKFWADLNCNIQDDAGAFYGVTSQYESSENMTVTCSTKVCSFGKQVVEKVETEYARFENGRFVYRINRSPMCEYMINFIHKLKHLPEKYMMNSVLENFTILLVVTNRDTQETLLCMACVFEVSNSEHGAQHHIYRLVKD
In short: as §1

[2] = biological target: TEAD2 TAZ (amino acids 13-57) (Homo sapiens, UniProt Q15562); test: TEAD2-TAZ HTRF (TR-FRET) protein-protein interaction assay; settings: for TEAD2 TAZ HTRF combined: Max % Inhibition: TEAD2, TAZ peptide; for EC50: TEAD2-TAZ HTRF, TR-FRET 665 nm/615 nm, read-out: TEAD2 TAZ HTRF combined: EC50
Sequence of TEAD2 TAZ (amino acids 13-57) (Q15562 217-447): as the sequence (Q15562 217-447) above
In short: as §1

[3] = biological target: TEAD3 TAZ (amino acids 13-57) (Homo sapiens, UniProt Q99594); test: TEAD3-TAZ HTRF (TR-FRET) protein-protein interaction assay; settings: for TEAD3 TAZ HTRF combined: Max % Inhibition: TEAD3, TAZ peptide; for EC50: TEAD3-TAZ HTRF, TR-FRET 665 nm/615 nm, read-out: TEAD3 TAZ HTRF combined: EC50
Sequence of TEAD3 TAZ (amino acids 13-57) (Q99594 173-435 limits assumed): as the sequence (Q99594 173-435 limits assumed) above
In short: as §1

[4] = biological target: TEAD4 TAZ (amino acids 13-57) (Homo sapiens, UniProt Q15561); test: TEAD4-TAZ HTRF (TR-FRET) protein-protein interaction assay; settings: for TEAD4 TAZ HTRF combined: Max % Inhibition: TEAD4, TAZ peptide; for EC50: TEAD4-TAZ HTRF, TR-FRET 665 nm/615 nm, read-out: TEAD4 TAZ HTRF combined: EC50
Sequence of TEAD4 TAZ (amino acids 13-57) (Q15561 217-434 limits assumed): as the sequence (Q15561 217-434 limits assumed) above
In short: as §1

Sequence of TEAD1 YAP50-100 (P28347 167-426 limits assumed): as the sequence (P28347 167-426 limits assumed) above

With `CN(C)C(=O)c1nn2c(=O)cc(-c3ccc(C4CCCCC4)c(F)c3)[nH]c2c1C(=O)N1CC(CF)C1` [Compound 4, 5-(4-Cyclohexyl-3-fluorophenyl)-3-(3-(fluoromethyl)azetidine-1-carbonyl)-N,N-dimethyl-7-oxo-4,7-dihydropyrazolo[1,5-a]pyrimidine-2-carboxamide] as the molecule, how does the “TEAD1 YAP50-100 HTRF combined: Max % Inhibition” value (TEAD1 YAP50-100) read?
The value was 69.0%.

What about the EC50 (TEAD1 YAP50-100) of the same molecule?
The EC50 was 40 nM.

What about the “TEAD2 YAP50-100 HTRF combined: Max % Inhibition” value (TEAD2 YAP50-100) of the same molecule?
Its value is 64.0%.

And the EC50 (TEAD2 YAP50-100)?
Its EC50 is 10 nM.

What about the “TEAD3 YAP50-100 HTRF combined: Max % Inhibition” value (TEAD3 YAP50-100) of the same molecule?
The value was 69.0%.

What about the EC50 (TEAD3 YAP50-100) of the same molecule?
The EC50 was 70 nM.

What about the “TEAD4 YAP50-100 HTRF combined: Max % Inhibition” value (TEAD4 YAP50-100) of the same molecule?
The value was 48.5%.

And the EC50 (TEAD4 YAP50-100)?
The EC50 was 200 nM.

And the “TEAD1 TAZ HTRF combined: Max % Inhibition” value [1]?
Its value is 59.0%.

What about the EC50 [1] of the same molecule?
The EC50 was 50 nM.

And the “TEAD2 TAZ HTRF combined: Max % Inhibition” value [2]?
Its value is 64.5%.

What about the EC50 [2] of the same molecule?
The EC50 was 10 nM.

What about the “TEAD3 TAZ HTRF combined: Max % Inhibition” value [3] of the same molecule?
Its value is 59.0%.

And the EC50 [3]?
The EC50 was 80 nM.

And the “TEAD4 TAZ HTRF combined: Max % Inhibition” value [4]?
Its value is 36.0%.

And the EC50 [4]?
The EC50 was 150 nM.

Which results are given for `C[C@H]1[C@@H](CF)CN1C(=O)c1c(C(=O)N(C)C)nn2c(=O)cc(-c3ccc(C4CCCCC4)cc3)[nH]c12` [Compound 5, 5-(4-Cyclohexylphenyl)-3-((2S,3S)-3-(fluoromethyl)-2-methylazetidine-1-carbonyl)-N,N-dimethyl-7-oxo-4,7-dihydropyrazolo[1,5-a]pyrimidine-2-carboxamide]?
TEAD1 YAP50-100 HTRF combined: Max % Inhibition (TEAD1 YAP50-100): 73.0%; EC50 (TEAD1 YAP50-100): 80 nM; TEAD2 YAP50-100 HTRF combined: Max % Inhibition (TEAD2 YAP50-100): 83.0%; EC50 (TEAD2 YAP50-100): 10 nM; TEAD3 YAP50-100 HTRF combined: Max % Inhibition (TEAD3 YAP50-100): 75.5%; EC50 (TEAD3 YAP50-100): 130 nM; TEAD4 YAP50-100 HTRF combined: Max % Inhibition (TEAD4 YAP50-100): 56.0%; EC50 (TEAD4 YAP50-100): 250 nM; TEAD1 TAZ HTRF combined: Max % Inhibition [1]: 62.0%; EC50 [1]: 70 nM; TEAD2 TAZ HTRF combined: Max % Inhibition [2]: 78.5%; EC50 [2]: 10 nM; TEAD3 TAZ HTRF combined: Max % Inhibition [3]: 66.5%; EC50 [3]: 140 nM; TEAD4 TAZ HTRF combined: Max % Inhibition [4]: 41.0%; EC50 [4]: 170 nM

What does the source list for `C[C@@H]1[C@H](CF)CN1C(=O)c1c(C(=O)N(C)C)nn2c(=O)cc(-c3ccc(C4CCCCC4)cc3)[nH]c12` [Compound 6, 5-(4-Cyclohexylphenyl)-3-((2R,3R)-3-(fluoromethyl)-2-methylazetidine-1-carbonyl)-N,N-dimethyl-7-oxo-4,7-dihydropyrazolo[1,5-a]pyrimidine-2-carboxamide]?
TEAD1 YAP50-100 HTRF combined: Max % Inhibition (TEAD1 YAP50-100): 73.0%; EC50 (TEAD1 YAP50-100): 410 nM; TEAD2 YAP50-100 HTRF combined: Max % Inhibition (TEAD2 YAP50-100): 69.5%; EC50 (TEAD2 YAP50-100): 710 nM; TEAD3 YAP50-100 HTRF combined: Max % Inhibition (TEAD3 YAP50-100): 71.5%; EC50 (TEAD3 YAP50-100): 4950 nM; TEAD4 YAP50-100 HTRF combined: Max % Inhibition (TEAD4 YAP50-100): 17.0%; EC50 (TEAD4 YAP50-100): 19500 nM; TEAD1 TAZ HTRF combined: Max % Inhibition [1]: 70.5%; EC50 [1]: 520 nM; TEAD2 TAZ HTRF combined: Max % Inhibition [2]: 67.5%; EC50 [2]: 710 nM; TEAD3 TAZ HTRF combined: Max % Inhibition [3]: 64.5%; EC50 [3]: 6000 nM; TEAD4 TAZ HTRF combined: Max % Inhibition [4]: 14.0%; EC50 [4]: 35500 nM

What does the source list for `O=C(c1c(-c2nccnc2C(F)(F)F)nn2c(=O)cc(-c3ccc(C4CCCCC4)cc3)[nH]c12)N1CC(CF)C1` [Compound 7, 5-(4-Cyclohexylphenyl)-3-(3-(fluoromethyl)azetidine-1-carbonyl)-2-(3-(trifluoromethyl)pyrazin-2-yl)pyrazolo[1,5-a]pyrimidin-7(4H)-one]?
TEAD1 YAP50-100 HTRF combined: Max % Inhibition (TEAD1 YAP50-100): 78.0%; EC50 (TEAD1 YAP50-100): 200 nM; TEAD2 YAP50-100 HTRF combined: Max % Inhibition (TEAD2 YAP50-100): 61.0%; EC50 (TEAD2 YAP50-100): 40 nM; TEAD3 YAP50-100 HTRF combined: Max % Inhibition (TEAD3 YAP50-100): 71.0%; EC50 (TEAD3 YAP50-100): 350 nM; TEAD4 YAP50-100 HTRF combined: Max % Inhibition (TEAD4 YAP50-100): 54.0%; EC50 (TEAD4 YAP50-100): 260 nM; TEAD1 TAZ HTRF combined: Max % Inhibition [1]: 74.0%; EC50 [1]: 200 nM; TEAD2 TAZ HTRF combined: Max % Inhibition [2]: 67.0%; EC50 [2]: 30 nM; TEAD3 TAZ HTRF combined: Max % Inhibition [3]: 61.0%; EC50 [3]: 320 nM; TEAD4 TAZ HTRF combined: Max % Inhibition [4]: 50.0%; EC50 [4]: 160 nM
